Measurements taken from publication PMC11257039, “VCP activator reverses nuclear proteostasis defects and enhances TDP-43 aggregate clearance in multisystem proteinopathy models” (The Journal of Clinical Investigation, 2024).
“And” between values parts separate entries of the source, which are not always exact repeats. Equal values may be shown once.

Key:
[1] = system: WT HeLa cells expressing GFP-TDP-4FL; assay: Flow cytometry of GFP-TDP-4FL integrated fluorescence, WT HeLa; format: cell-based; settings: for Integrated Fluorescence WT (Normalized to CHX): 4 μM MG132 17 h
Method: Drug treatments were performed on neurons 7 days after lentiviral transduction and 14 days after neuronal induction. HeLa cells were collected using trypsin and pelleted at 1000g for 3 minutes. Cell pellets were resuspended in colorless DMEM (Invitrogen) supplemented with 2% FBS and filtered through a BD tube with cell strainer (BD Biosciences) for flow cytometry analysis on LSR II (BD Biosciences). Data analysis was performed on FlowJo v10 software. Integrated fluorescence intensity was determined by multiplying percent positive GFP and GFP median fluorescence values.

recombinant WT VCP [2] = target: T1, recombinant WT VCP (Mus musculus, UniProt Q01853); assay: Kinase-Glo ATPase assay, recombinant WT VCP; format: biochemical; settings: for ATP consumed: WT VCP no UN
T1 construct: in the full-length recombinant VCP; His (N); made in house; host or cells: Escherichia coli BL21-CodonPlus (DE3)-RIL
T1 sequence (Q01853 whole entry): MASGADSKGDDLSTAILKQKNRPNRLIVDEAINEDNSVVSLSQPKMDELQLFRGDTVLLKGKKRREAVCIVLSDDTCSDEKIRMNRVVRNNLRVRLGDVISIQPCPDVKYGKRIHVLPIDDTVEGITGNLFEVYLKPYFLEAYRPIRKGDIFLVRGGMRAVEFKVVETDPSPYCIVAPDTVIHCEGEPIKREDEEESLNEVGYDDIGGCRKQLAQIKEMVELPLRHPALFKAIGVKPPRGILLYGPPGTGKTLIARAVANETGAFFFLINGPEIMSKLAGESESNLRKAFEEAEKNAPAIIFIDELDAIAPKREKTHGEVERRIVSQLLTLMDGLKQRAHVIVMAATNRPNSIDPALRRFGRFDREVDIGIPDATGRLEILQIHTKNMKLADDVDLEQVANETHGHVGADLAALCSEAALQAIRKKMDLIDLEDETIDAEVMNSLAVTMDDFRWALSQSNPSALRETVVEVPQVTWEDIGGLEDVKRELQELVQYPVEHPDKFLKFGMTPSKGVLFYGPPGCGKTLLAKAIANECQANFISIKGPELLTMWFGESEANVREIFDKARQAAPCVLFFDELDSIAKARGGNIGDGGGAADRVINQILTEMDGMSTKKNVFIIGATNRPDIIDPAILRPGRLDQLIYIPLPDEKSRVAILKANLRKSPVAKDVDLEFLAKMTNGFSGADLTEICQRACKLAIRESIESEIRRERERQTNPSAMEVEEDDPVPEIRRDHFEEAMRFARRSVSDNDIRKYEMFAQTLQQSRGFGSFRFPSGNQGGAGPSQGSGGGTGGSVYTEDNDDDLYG
Method: (§1) Experiments with varied activator concentration and screening were measured using the Kinase-Glo Luminescent Kinase Assay (Promega). Reactions were incubated at 25°C for 1 hour then reduced to 4°C in a thermocycler consisting of 50 nM of recombinant VCP with or without 50 nM UFD1/NPLOC4 in 50 uL ATPase buffer (25 mM HEPES, pH 7.5, 100 mM NaCl, 10 mM MgCl2) at 2% DMSO with 62.5 μM ATP and a range of activator concentrations (Gibco, Sigma-Aldrich). Equal volumes of reaction and Kinase-Glo reagent were incubated for 20 minutes at room temperature in a 96 well white flat bottom plate (Corning). Luminescence was measured in a microplate reader (Spark 20M, Tecan).
(§2) Experiments with varied compound concentration were fit to a 3-parameter dose curve with asymmetric profile likelihood 95% confidence intervals in GraphPad Prism 9 (GraphPad). Experiments with varied ATP concentration were fit to a Michaelis-Menten model with asymmetric profile likelihood 95% confidence intervals. Significance was determined for experiments with fixed compound or fixed ATP concentration using a linear mixed-effects model.

recombinant WT VCP [3] = target: T1, recombinant WT VCP; assay: MESG-PNP (EnzCheck) phosphate release ATPase assay, WT VCP; format: biochemical; settings: for ATPase activity v0/ET: 25 μM compound, replicate experiments
Method: (§3) All other experiments were performed using the EnzCheck phosphatase assay kit (Molecular Probes). ATPase activity was measured in a 96-well flat bottom plate (Thermo Fisher Scientific). 50 nM VCP was incubated in 100 μL ATPase buffer with 2% DMSO with 25 μM compound and various ATP concentrations. The absorbance at 360 ± 5 nm was measured for more than 15 minutes at 25°C. Phosphate release was quantified based on a phosphate standard curve performed on the same plate. Initial enzyme velocity was determined by fitting the linear portion of the data to a linear regression model.
as §2

A232E VCP = target: T2, A232E VCP (Mus musculus, UniProt Q01853, A232E); assay: MESG-PNP ATPase assay, recombinant A232E VCP; format: biochemical; settings: VCP Mutation A232E; replicate values
T2 construct: in the full-length recombinant VCP; His (N); made in house; host or cells: Escherichia coli BL21-CodonPlus (DE3)-RIL
T2 sequence (Q01853 whole entry A232E): as the sequence (Q01853 whole entry) above, with A232E counted along it
Method: as §3
(§4) Figure S8. VCP activators variable effect on ATPase activity of MSP associated mutations in recombinant VCP. ATPase activity of 50 nM recombinant VCP protein was measured using an MESG-PNP assay upon treatment with 25 μM compound versus 2% DMSO control at 1mM ATP for WT (also shown in Fig. 5c), A232E, R155H, and R159H (n=3 with 3 technical replicated per experiment; points are expressed as beta ± SE, linear effects model: *P<0.05,**P<0.01; ***P<0.001; ****P<0.0001).

26S proteasome = 26S proteasome activity, Suc-LLVY-AMC fluorescence; format: biochemical, human; settings: 25 μM compound, versus 1% DMSO
Method: 26S proteasome and substrate suc-LLVY-AMC were purchased (LifeSensors, Inc.). Fluorescence was measured in a microplate reader using a 96-well optical bottom black plate (Thermo Fisher Scientific). […] 26S proteasome was incubated in 100 μL proteasome buffer (20 mM HEPES, pH 7.5, 0.5 mM EDTA, 0.05% Triton-X) with 100 μM suc-LLVY-AMC, 1 mM ATP, and 25 μM compound or 1% DMSO. Fluorescence was measured at excitation 380 ± 10nm and emission 460 ± 10nm for more than 15 minutes at 37°C. Initial velocity was determined by fitting the linear portion of the data to a linear regression model. Significance was determined for using a linear mixed-effects model.

R159H VCP = target: T3, R159H VCP (Mus musculus, UniProt Q01853, R159H); assay: MESG-PNP ATPase assay, recombinant R159H VCP; format: biochemical; settings: VCP Mutation R159H; replicate values
T3 construct: in the full-length recombinant VCP; His (N); made in house; host or cells: Escherichia coli BL21-CodonPlus (DE3)-RIL
T3 sequence (Q01853 whole entry R159H): as the sequence (Q01853 whole entry) above, with R159H counted along it
Method: as §3, §4

WT VCP + Ufd1/Nploc4 = target: T4, WT VCP + Ufd1/Nploc4 (Mus musculus, UniProt Q01853); assay: Kinase-Glo ATPase assay, WT VCP with UFD1/NPLOC4 (UN); format: biochemical; settings: for ATP consumed: WT VCP with UN
T4 construct: in the full-length recombinant VCP; His (N); made in house; host or cells: E. coli (VCP: BL21-CodonPlus (DE3)-RIL; UFD1 and NPLOC4: E. coli (DE3), purified by the MD Anderson core)
T4 sequence (Q01853 whole entry): as the sequence (Q01853 whole entry) above
T4 sequence (Q92890 whole entry partner): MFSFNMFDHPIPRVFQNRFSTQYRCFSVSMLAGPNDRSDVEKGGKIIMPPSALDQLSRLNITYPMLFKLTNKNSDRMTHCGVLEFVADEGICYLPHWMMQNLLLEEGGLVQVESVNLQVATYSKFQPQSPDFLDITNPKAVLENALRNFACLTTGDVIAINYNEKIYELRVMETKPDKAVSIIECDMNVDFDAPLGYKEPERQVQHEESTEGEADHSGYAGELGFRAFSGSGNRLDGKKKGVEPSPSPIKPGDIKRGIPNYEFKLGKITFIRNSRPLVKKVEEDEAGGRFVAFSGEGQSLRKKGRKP
T4 sequence (Q8TAT6 whole entry partner): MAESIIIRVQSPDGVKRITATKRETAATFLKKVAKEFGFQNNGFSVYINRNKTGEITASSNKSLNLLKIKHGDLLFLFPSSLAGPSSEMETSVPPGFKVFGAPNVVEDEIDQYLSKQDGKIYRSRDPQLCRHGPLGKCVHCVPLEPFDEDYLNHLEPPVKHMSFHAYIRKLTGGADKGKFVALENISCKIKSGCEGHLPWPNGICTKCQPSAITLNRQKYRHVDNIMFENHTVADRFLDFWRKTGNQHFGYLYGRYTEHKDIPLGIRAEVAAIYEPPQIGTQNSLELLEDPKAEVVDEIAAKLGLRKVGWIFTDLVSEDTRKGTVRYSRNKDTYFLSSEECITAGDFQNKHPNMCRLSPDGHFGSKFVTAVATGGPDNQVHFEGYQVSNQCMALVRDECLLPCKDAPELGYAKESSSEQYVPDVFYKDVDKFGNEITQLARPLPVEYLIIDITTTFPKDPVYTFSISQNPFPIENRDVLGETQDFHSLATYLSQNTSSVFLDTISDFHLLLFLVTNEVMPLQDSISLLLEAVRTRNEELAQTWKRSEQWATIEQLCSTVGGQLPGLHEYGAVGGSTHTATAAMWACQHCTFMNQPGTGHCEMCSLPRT
Method: as §1, §2

R155H VCP = target: T5, R155H VCP (Mus musculus, UniProt Q01853, R155H); assay: MESG-PNP ATPase assay, recombinant R155H VCP; format: biochemical; settings: VCP Mutation R155H; replicate values
T5 construct: in the full-length recombinant VCP; His (N); made in house; host or cells: Escherichia coli BL21-CodonPlus (DE3)-RIL
T5 sequence (Q01853 whole entry R155H): as the sequence (Q01853 whole entry) above, with R155H counted along it
Method: as §3, §4

luciferase = assay: Luciferase counter assay: Kinase-Glo with 62.5 μM ATP without recombinant VCP; format: biochemical; settings: for measured ATP consumed (nmol) without VCP: replicate values
Method: as §1
(A-D) Measured ATP as determined by a Kinase-Glo assay of 62.5μM ATP in the presence of increasing concentrations of compound without recombinant VCP present. (for all panels: n=3 with 4 technical replicates per experiment, points are expressed as beta ± SE, linear mixed effects model, P>0.05 for each […]
(1 picture or pasted object on this page, not shown here)

O=C(CSc1nc2ccccc2c(=O)n1NC(=O)c1ccccc1)c1ccc(Cl)cc1 [UP12]
Integrated Fluorescence WT (Normalized to CHX) ([1]; then CHX with 5 μM compound 4 h): 0.972 and 1.128 and 1.069 and 1.136 and 1.032 and 0.941 | Integrated Fluorescence WT (Normalized to CHX) ([1]; then CHX with 20 μM compound 4 h): 0.894 and 0.971 and 1.353 and 0.977 and 0.848 and 0.689 | clearance of GFP-TDP-4FL aggregates (integrated fluorescence) ([1]; MG132, then CHX with 5 or 20 μM activator): did not have a significant effect | EC50 (recombinant WT VCP [2]; EC50 (μM) (95% CI), WT VCP without UN, 50 nM VCP, 62.5 μM ATP, 2% DMSO): 1.57 µM | ATP consumed (recombinant WT VCP [2]; 0.20 μM compound): 0.972 nmol and 0.921 nmol and 1.113 nmol | ATP consumed (recombinant WT VCP [2]; 0.39 μM compound): 1.046 nmol and 0.999 nmol and 1.126 nmol | ATP consumed (recombinant WT VCP [2]; 0.78 μM compound): 1.028 nmol and 1.027 nmol and 1.185 nmol | ATP consumed (recombinant WT VCP [2]; 1.56 μM compound): 1.050 nmol and 1.001 nmol and 1.186 nmol | ATP consumed (recombinant WT VCP [2]; 3.13 μM compound): 0.987 nmol and 1.173 nmol and 1.366 nmol | ATP consumed (recombinant WT VCP [2]; 6.25 μM compound): 1.164 nmol and 1.158 nmol and 1.362 nmol | ATP consumed (recombinant WT VCP [2]; 12.5 μM compound): 1.242 nmol and 1.397 nmol and 1.210 nmol | ATP consumed (recombinant WT VCP [2]; 25 μM compound): 1.202 nmol and 1.262 nmol and 1.324 nmol | recombinant WT VCP ATPase activity (recombinant WT VCP [2]; in vitro validation of 106 screen hits): significantly increased | increase of VCP activity (recombinant WT VCP [2]; maximum, WT VCP without UN): 39% | kcat (nmol Pi / nmol VCP / s) (95% CI) (recombinant WT VCP [3]; 25 μM activator): 0.309 (0.269, 0.356) nmol Pi / nmol VCP / s | increase in kcat (recombinant WT VCP [3]; 25 μM activator, versus DMSO): about 25% | ATPase activity v0/ET (recombinant WT VCP [3]; [ATP] 62.5 μM): 0.164 nmol Pi / nmol VCP / s and 0.127 nmol Pi / nmol VCP / s and 0.154 nmol Pi / nmol VCP / s | ATPase activity v0/ET (recombinant WT VCP [3]; [ATP] 125 μM): 0.234 nmol Pi / nmol VCP / s and 0.182 nmol Pi / nmol VCP / s and 0.208 nmol Pi / nmol VCP / s | ATPase activity v0/ET (recombinant WT VCP [3]; [ATP] 250 μM): 0.282 nmol Pi / nmol VCP / s and 0.230 nmol Pi / nmol VCP / s and 0.291 nmol Pi / nmol VCP / s | ATPase activity v0/ET (recombinant WT VCP [3]; [ATP] 500 μM): 0.289 nmol Pi / nmol VCP / s and 0.232 nmol Pi / nmol VCP / s and 0.265 nmol Pi / nmol VCP / s | ATPase activity v0/ET (recombinant WT VCP [3]; [ATP] 1000 μM): 0.320 nmol Pi / nmol VCP / s and 0.260 nmol Pi / nmol VCP / s and 0.293 nmol Pi / nmol VCP / s | ATPase activity, nmol Pi / nmol VCP / s (A232E VCP): 1.130 nmol Pi / nmol VCP / s and 0.838 nmol Pi / nmol VCP / s and 0.963 nmol Pi / nmol VCP / s | % activity of 26S proteasome (26S proteasome): 94.3% and 79.8% and 83.9% and 107.1% and 92.8% and 109.7% | ATPase activity, nmol Pi / nmol VCP / s (R159H VCP): 0.579 nmol Pi / nmol VCP / s and 0.685 nmol Pi / nmol VCP / s and 0.536 nmol Pi / nmol VCP / s | change in EC50 with UN compared to without UN (WT VCP + Ufd1/Nploc4): non-significant decreases | change in maximum percent activity with UN compared to without UN (WT VCP + Ufd1/Nploc4): significantly decreased | EC50 (WT VCP + Ufd1/Nploc4; WT VCP + Ufd1/Nploc4, 1:1 molar ratio): 648 nM | ATP consumed (WT VCP + Ufd1/Nploc4; 0.20 μM compound): 1.300 nmol and 1.366 nmol and 1.077 nmol | ATP consumed (WT VCP + Ufd1/Nploc4; 0.39 μM compound): 1.441 nmol and 1.399 nmol and 1.156 nmol | ATP consumed (WT VCP + Ufd1/Nploc4; 0.78 μM compound): 1.422 nmol and 1.447 nmol and 1.306 nmol | ATP consumed (WT VCP + Ufd1/Nploc4; 1.56 μM compound): 1.523 nmol and 1.537 nmol and 1.366 nmol | ATP consumed (WT VCP + Ufd1/Nploc4; 3.13 μM compound): 1.496 nmol and 1.548 nmol and 1.334 nmol | ATP consumed (WT VCP + Ufd1/Nploc4; 6.25 μM compound): 1.632 nmol and 1.536 nmol and 1.400 nmol | ATP consumed (WT VCP + Ufd1/Nploc4; 12.5 μM compound): 1.663 nmol and 1.623 nmol and 1.427 nmol | ATP consumed (WT VCP + Ufd1/Nploc4; 25 μM compound): 1.544 nmol and 1.491 nmol and 1.364 nmol | ATPase activity, nmol Pi / nmol VCP / s (R155H VCP): 0.592 nmol Pi / nmol VCP / s and 0.458 nmol Pi / nmol VCP / s and 0.468 nmol Pi / nmol VCP / s | luciferase activity (measured ATP without VCP) (luciferase; 62.5 μM ATP, increasing concentrations of compound): did not inhibit luciferase activity | measured ATP consumed (nmol) without VCP (luciferase; compound 6.25 μM): 3.153 nmol and 3.247 nmol and 3.452 nmol and 3.556 nmol and 3.276 nmol and 3.463 nmol and 3.531 nmol and 3.381 nmol and 3.251 nmol and 3.386 nmol and 3.279 nmol and 3.064 nmol | measured ATP consumed (nmol) without VCP (luciferase; compound 12.5 μM): 3.163 nmol and 3.366 nmol and 3.532 nmol and 3.606 nmol and 3.351 nmol and 3.662 nmol and 3.334 nmol and 3.435 nmol and 3.323 nmol and 3.733 nmol and 3.427 nmol and 3.076 nmol | measured ATP consumed (nmol) without VCP (luciferase; compound 25 μM): 3.243 nmol and 3.452 nmol and 3.683 nmol and 3.709 nmol and 3.371 nmol and 3.627 nmol and 3.582 nmol and 3.248 nmol and 3.318 nmol and 3.356 nmol and 3.238 nmol and 3.225 nmol | measured ATP consumed (nmol) without VCP (luciferase; compound 50 μM): 3.199 nmol and 3.663 nmol and 3.673 nmol and 3.419 nmol and 3.053 nmol and 3.725 nmol and 3.509 nmol and 3.086 nmol and 3.588 nmol and 3.442 nmol and 3.634 nmol and 3.113 nmol | measured ATP consumed (nmol) without VCP (luciferase; compound 100 μM): 3.128 nmol and 3.612 nmol and 3.580 nmol and 3.474 nmol and 3.673 nmol and 3.565 nmol and 3.583 nmol and 2.931 nmol and 3.556 nmol and 3.479 nmol and 3.581 nmol and 3.246 nmol
